# Assay results as given in paper PMC9186412, “Rational Framework for the Design of Trp- and Arg-Rich Peptide Antibiotics Against Multidrug-Resistant Bacteria” (Frontiers in Microbiology, 2022).
# Read-outs that look alike come from different tables or passages of the source. Where no end group is shown, it is not given here.
# How the values were obtained:
# A. baumannii = assay: microbe, parasite or virus in culture; type: cell-based, Acinetobacter baumannii; details: 18 h
# Procedure: (§1) Bacterial clinical isolates, used for initial screening and in previous studies ([Deslouches et al., 2013]; [Lin et al., 2018]), were anonymously provided by the clinical microbiology laboratory of the University of Pittsburgh medical Center. The panel used for secondary screening was from [CDC (2013)] (Supplementary Table 3), with resistance profiles data. Bacteria are stored in lock-secured –80°C freezer and typically retrieved by obtaining single colonies on agar plates prior for subsequent liquid broth cultures. Suspensions of test bacteria were prepared from log phase of growth by diluting overnight cultures at 1:100 with fresh cation-adjusted MHB (MHB2, Millipore Sigma, United States) and incubating for additional 3–4 h. Bacteria were spun at 3,000 × g for 10 min and the pellet resuspended in test condition media (Millipore Sigma, United States) to determine bacterial turbidity using a Den-1B densitometer (Grant Instruments, United States) at 0.5 McFarland (unit of bacterial density) corresponding to […].
# (§2) To examine antibacterial activity, we used minor modifications of a standard growth inhibition assay endorsed by the Clinical and Laboratory Standards Institute (CLSI), as previously described ([Deslouches et al., 2013]). Bacteria were incubated with each of the indicated peptides in MHB2. The bacterial cells were kept in an incubator for 18 h at 37°C, which is linked to a robotic system that feeds a plate reader every hour with one of 8 × 96-well plates. This set-up allows the collection of growth kinetic data at A 570 (absorbance at 570 nm) to examine growth inhibition in real time (BioTek Instruments, United States). […] The assays are typically repeated a second time. If the MIC is different, a third experimental trial is performed to confirm the MIC. To assess bactericidal properties of the peptide, the assay was modified by using 15% fetal bovine serum (FBS, for a more physiologically relevant test condition) mixed with 25% MHB2 and 60% PBS. Bacterial cells (colony forming unit/mL or CFU/mL) were enumerated after incubating treated bacteria for 3 h and plating serially diluted samples on broth agar medium at 37°C overnight. Minimum bactericidal concentration (MBC) was determined as the peptide concentration at which complete bacterial killing was observed. […] Data were analyzed using GraphPad Prism software.
# E. coli = assay: microbe, parasite or virus in culture; type: cell-based, Escherichia coli
# Procedure: as §1, §2
# CDC AR isolates [1] = tested on: CDC AR isolates; parameters: key: S (green), susceptible; I (blue), intermediate; R (red), resistant; details: data provided by the CDC, ref CDC, cited from earlier work
# Description: Supplement Table_3.XLSX, sheet "CDC AR isolates profiles" | column: G(-) strains
# CDC AR isolates [2] = tested on: CDC AR isolates; parameters: key: S (green), susceptible; I (blue), intermediate; R (red), resistant; details: data provided by the CDC, ref CDC, cited from earlier work; remark: listed apart in the source
# [3] = Acinetobacter baumannii AB273, CDC AR isolate
# [4] = Acinetobacter baumannii AB274, CDC AR isolate
# [5] = Acinetobacter baumannii AB275, CDC AR isolate
# [6] = Acinetobacter baumannii AB276, CDC AR isolate
# [7] = Enterobacter cloacae E62, CDC AR isolate
# [8] = Enterobacter cloacae E544, CDC AR isolate
# [9] = Enterobacter cloacae E545, CDC AR isolate
# [10] = Enterobacter cloacae E546, CDC AR isolate
# [11] = Escherichia coli EC541, CDC AR isolate
# [12] = Escherichia coli EC543, CDC AR isolate
# [13] = Escherichia coli EC544, CDC AR isolate
# [14] = Escherichia coli EC549, CDC AR isolate
# [15] = Klebsiella pneumoniae KP542, CDC AR isolate
# [16] = Klebsiella pneumoniae KP548, CDC AR isolate
# [17] = Klebsiella pneumoniae KP550, CDC AR isolate
# [18] = Klebsiella pneumoniae KP552, CDC AR isolate
# [19] = Pseudomonas aeruginosa PA229, CDC AR isolate
# [20] = Pseudomonas aeruginosa PA230, CDC AR isolate
# [21] = Pseudomonas aeruginosa PA231, CDC AR isolate
# [22] = Pseudomonas aeruginosa PA232, CDC AR isolate
# [23] = Pseudomonas aeruginosa PA239, CDC AR isolate
# [24] = Staphylococcus aureus SA462, CDC AR isolate
# [25] = Staphylococcus aureus SA463, CDC AR isolate
# [26] = Staphylococcus aureus SA561, CDC AR isolate
# [27] = Staphylococcus aureus SA461, CDC AR isolate
# [28] = Enterococcus faecium EF500, CDC AR isolate
# [29] = Enterococcus faecium EF671, CDC AR isolate
# [30] = Enterococcus faecium EF672, CDC AR isolate
# [31] = Enterococcus faecium EF673, CDC AR isolate
compound,measurement,setting,value
RRWVRWVRRWVRWVRR [E80],MIC,A. baumannii,16 µM
RRVWRRVRRVWRRVRRVVRRVW [E71],MIC,A. baumannii,8 µM
RRVWRRVRRVWRRVRRWVRRVV [E72],MIC,E. coli,0.5 µM
CNC(C)C1CCC(N)C(OC2C(N)CC(N)C(OC3OCC(C)(O)C(NC)C3O)C2O)O1 (centres unmarked) [Gentamicin],Antibiotic susceptibility profile,CDC AR isolates [1]; [3],R
same,Antibiotic susceptibility profile,CDC AR isolates [1]; [4],R
same,Antibiotic susceptibility profile,CDC AR isolates [1]; [5],R
same,Antibiotic susceptibility profile,CDC AR isolates [1]; [6],R
same,Antibiotic susceptibility profile,CDC AR isolates [1]; [7],S
same,Antibiotic susceptibility profile,CDC AR isolates [1]; [8],R
same,Antibiotic susceptibility profile,CDC AR isolates [1]; [9],R
same,Antibiotic susceptibility profile,CDC AR isolates [1]; [10],S
same,Antibiotic susceptibility profile,CDC AR isolates [1]; [11],S
same,Antibiotic susceptibility profile,CDC AR isolates [1]; [12],R
same,Antibiotic susceptibility profile,CDC AR isolates [1]; [13],R
same,Antibiotic susceptibility profile,CDC AR isolates [1]; [14],S
same,Antibiotic susceptibility profile,CDC AR isolates [1]; [15],R
same,Antibiotic susceptibility profile,CDC AR isolates [1]; [16],S
same,Antibiotic susceptibility profile,CDC AR isolates [1]; [17],R
same,Antibiotic susceptibility profile,CDC AR isolates [1]; [18],S
same,Antibiotic susceptibility profile,CDC AR isolates [1]; [19],S
same,Antibiotic susceptibility profile,CDC AR isolates [1]; [20],R
same,Antibiotic susceptibility profile,CDC AR isolates [1]; [21],R
same,Antibiotic susceptibility profile,CDC AR isolates [1]; [22],R
same,Antibiotic susceptibility profile,CDC AR isolates [1]; [23],R
same,Antibiotic susceptibility profile,CDC AR isolates [1]; [24],S
same,Antibiotic susceptibility profile,CDC AR isolates [1]; [25],S
same,Antibiotic susceptibility profile,CDC AR isolates [1]; [26],S
same,Antibiotic susceptibility profile,CDC AR isolates [2]; [27],S
Teicoplanin,Antibiotic susceptibility profile,CDC AR isolates [1]; [28],S
same,Antibiotic susceptibility profile,CDC AR isolates [1]; [29],S
same,Antibiotic susceptibility profile,CDC AR isolates [1]; [30],S
same,Antibiotic susceptibility profile,CDC AR isolates [2]; [31],S
CN(C)[C@@H]1C(O)=C(C(N)=O)C(=O)[C@@]2(O)C(O)=C3C(=O)c4c(O)cccc4[C@@](C)(O)[C@H]3C[C@@H]12 [Tetracycline],Antibiotic susceptibility profile,CDC AR isolates [1]; [3],R
same,Antibiotic susceptibility profile,CDC AR isolates [1]; [4],R
same,Antibiotic susceptibility profile,CDC AR isolates [1]; [5],R
same,Antibiotic susceptibility profile,CDC AR isolates [1]; [6],S
same,Antibiotic susceptibility profile,CDC AR isolates [1]; [7],S
same,Antibiotic susceptibility profile,CDC AR isolates [1]; [8],R
same,Antibiotic susceptibility profile,CDC AR isolates [1]; [9],I
same,Antibiotic susceptibility profile,CDC AR isolates [1]; [10],R
same,Antibiotic susceptibility profile,CDC AR isolates [1]; [11],R
same,Antibiotic susceptibility profile,CDC AR isolates [1]; [12],R
same,Antibiotic susceptibility profile,CDC AR isolates [1]; [13],R
same,Antibiotic susceptibility profile,CDC AR isolates [1]; [14],R
same,Antibiotic susceptibility profile,CDC AR isolates [1]; [15],R
same,Antibiotic susceptibility profile,CDC AR isolates [1]; [16],I
same,Antibiotic susceptibility profile,CDC AR isolates [1]; [17],S
same,Antibiotic susceptibility profile,CDC AR isolates [1]; [18],R
same,Antibiotic susceptibility profile,CDC AR isolates [1]; [24],S
same,Antibiotic susceptibility profile,CDC AR isolates [1]; [25],S
same,Antibiotic susceptibility profile,CDC AR isolates [1]; [26],R
same,Antibiotic susceptibility profile,CDC AR isolates [2]; [27],S
CC[C@H]1OC(=O)[C@H](C)[C@@H](O[C@H]2C[C@@](C)(OC)[C@@H](O)[C@H](C)O2)[C@H](C)[C@@H](O[C@@H]2O[C@H](C)C[C@H](N(C)C)[C@H]2O)[C@](C)(O)C[C@@H](C)C(=O)[C@H](C)[C@@H](O)[C@]1(C)O [Erythromycin],Antibiotic susceptibility profile,CDC AR isolates [1]; [24],S
same,Antibiotic susceptibility profile,CDC AR isolates [1]; [25],S
same,Antibiotic susceptibility profile,CDC AR isolates [1]; [26],I
same,Antibiotic susceptibility profile,CDC AR isolates [2]; [27],R
RVWRRVRRVWRRVRRVWRRV [E69],MIC,A. baumannii,8 µM
C[C@H]1COc2c(N3CCN(C)CC3)c(F)cc3c(=O)c(C(=O)O)cn1c23 [Levofloxacin],Antibiotic susceptibility profile,CDC AR isolates [1]; [3],R
same,Antibiotic susceptibility profile,CDC AR isolates [1]; [4],R
same,Antibiotic susceptibility profile,CDC AR isolates [1]; [5],R
same,Antibiotic susceptibility profile,CDC AR isolates [1]; [6],R
same,Antibiotic susceptibility profile,CDC AR isolates [1]; [7],R
same,Antibiotic susceptibility profile,CDC AR isolates [1]; [8],R
same,Antibiotic susceptibility profile,CDC AR isolates [1]; [9],S
same,Antibiotic susceptibility profile,CDC AR isolates [1]; [10],R
same,Antibiotic susceptibility profile,CDC AR isolates [1]; [28],R
same,Antibiotic susceptibility profile,CDC AR isolates [1]; [29],S
same,Antibiotic susceptibility profile,CDC AR isolates [1]; [30],S
same,Antibiotic susceptibility profile,CDC AR isolates [1]; [11],R
same,Antibiotic susceptibility profile,CDC AR isolates [1]; [12],R
same,Antibiotic susceptibility profile,CDC AR isolates [1]; [13],R
same,Antibiotic susceptibility profile,CDC AR isolates [1]; [14],R
same,Antibiotic susceptibility profile,CDC AR isolates [1]; [15],R
same,Antibiotic susceptibility profile,CDC AR isolates [1]; [16],R
same,Antibiotic susceptibility profile,CDC AR isolates [1]; [17],R
same,Antibiotic susceptibility profile,CDC AR isolates [1]; [18],R
same,Antibiotic susceptibility profile,CDC AR isolates [1]; [19],R
same,Antibiotic susceptibility profile,CDC AR isolates [1]; [20],R
same,Antibiotic susceptibility profile,CDC AR isolates [1]; [21],R
same,Antibiotic susceptibility profile,CDC AR isolates [1]; [22],R
same,Antibiotic susceptibility profile,CDC AR isolates [1]; [23],R
same,Antibiotic susceptibility profile,CDC AR isolates [1]; [24],R
same,Antibiotic susceptibility profile,CDC AR isolates [1]; [25],S
same,Antibiotic susceptibility profile,CDC AR isolates [1]; [26],R
same,Antibiotic susceptibility profile,CDC AR isolates [2]; [31],S
same,Antibiotic susceptibility profile,CDC AR isolates [2]; [27],R
CC(=O)NC[C@H]1CN(c2ccc(N3CCOCC3)c(F)c2)C(=O)O1 [Linezolid],Antibiotic susceptibility profile,CDC AR isolates [1]; [28],S
same,Antibiotic susceptibility profile,CDC AR isolates [1]; [29],S
same,Antibiotic susceptibility profile,CDC AR isolates [1]; [30],S
same,Antibiotic susceptibility profile,CDC AR isolates [1]; [24],S
same,Antibiotic susceptibility profile,CDC AR isolates [1]; [25],S
same,Antibiotic susceptibility profile,CDC AR isolates [1]; [26],S
same,Antibiotic susceptibility profile,CDC AR isolates [2]; [31],S
same,Antibiotic susceptibility profile,CDC AR isolates [2]; [27],S
O=C(N[C@H](CO)[C@H](O)c1ccc([N+](=O)[O-])cc1)C(Cl)Cl [Chloramphenicol],Antibiotic susceptibility profile,CDC AR isolates [1]; [28],I
same,Antibiotic susceptibility profile,CDC AR isolates [1]; [29],R
same,Antibiotic susceptibility profile,CDC AR isolates [1]; [30],I
same,Antibiotic susceptibility profile,CDC AR isolates [2]; [31],S
